Measurements published in patent publication US20230373952A1, “LACTAM COMPOUNDS AS Kv1.3 POTASSIUM SHAKER CHANNEL BLOCKERS” (D.E. Shaw Research, LLC, priority 2020, published 2023).

Tests used:
Kv1.3 potassium channel = biological target: T1, Kv1.3 potassium channel (Homo sapiens, UniProt P22001); test: Kv1.3 potassium channel blocker activity, automated whole-cell patch clamp (Patchliner); assay type: cell-based; settings: CHO-K1 cells stably expressing Kv1.3; whole-cell current inhibition, Hill fit; read-out: Kv1.3 IC50
T1 construct: expressed in transfected cells
T1 sequence (P22001 whole entry): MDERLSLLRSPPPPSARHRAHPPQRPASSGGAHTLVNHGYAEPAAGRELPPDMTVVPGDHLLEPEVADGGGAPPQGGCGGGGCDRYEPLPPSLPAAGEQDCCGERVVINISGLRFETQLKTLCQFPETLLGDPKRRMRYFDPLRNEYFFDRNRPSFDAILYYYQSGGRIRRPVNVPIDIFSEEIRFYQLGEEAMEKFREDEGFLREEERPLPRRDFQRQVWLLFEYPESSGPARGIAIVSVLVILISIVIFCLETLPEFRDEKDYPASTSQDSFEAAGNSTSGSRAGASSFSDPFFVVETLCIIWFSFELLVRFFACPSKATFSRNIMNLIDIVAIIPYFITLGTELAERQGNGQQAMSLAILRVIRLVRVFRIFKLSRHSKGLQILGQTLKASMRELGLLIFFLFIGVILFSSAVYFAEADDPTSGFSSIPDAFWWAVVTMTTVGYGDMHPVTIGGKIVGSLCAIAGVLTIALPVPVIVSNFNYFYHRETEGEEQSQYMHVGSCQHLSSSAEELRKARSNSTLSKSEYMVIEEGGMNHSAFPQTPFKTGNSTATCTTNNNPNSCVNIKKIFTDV
Procedure: CHO-K1 cells stably expressing Kv1.3 were grown in DMEM containing 10% heat-inactivated FBS, 1 mM sodium pyruvate, 2 mM L-glutamine and G418 (500 μg/ml).
The currents were evoked by applying 100 ms depolarizing pulses from −90 mV (holding potential) to +40 mV were applied with 0.1 Hz frequency. […] 10-second breaks were used between pulse trains (see Table H below).
Passive leak currents were subtracted online using a P/4 procedure (HEKA Elektronik Dr. Schulze GmbH). […] Total compound incubation time before the next pulse train was not longer than 10 seconds. Peak current inhibition was observed during compound equilibration.

hERG channel = hERG channel (Homo sapiens, UniProt Q12809); test: cell-based
Sequence of hERG channel (Q12809 whole entry): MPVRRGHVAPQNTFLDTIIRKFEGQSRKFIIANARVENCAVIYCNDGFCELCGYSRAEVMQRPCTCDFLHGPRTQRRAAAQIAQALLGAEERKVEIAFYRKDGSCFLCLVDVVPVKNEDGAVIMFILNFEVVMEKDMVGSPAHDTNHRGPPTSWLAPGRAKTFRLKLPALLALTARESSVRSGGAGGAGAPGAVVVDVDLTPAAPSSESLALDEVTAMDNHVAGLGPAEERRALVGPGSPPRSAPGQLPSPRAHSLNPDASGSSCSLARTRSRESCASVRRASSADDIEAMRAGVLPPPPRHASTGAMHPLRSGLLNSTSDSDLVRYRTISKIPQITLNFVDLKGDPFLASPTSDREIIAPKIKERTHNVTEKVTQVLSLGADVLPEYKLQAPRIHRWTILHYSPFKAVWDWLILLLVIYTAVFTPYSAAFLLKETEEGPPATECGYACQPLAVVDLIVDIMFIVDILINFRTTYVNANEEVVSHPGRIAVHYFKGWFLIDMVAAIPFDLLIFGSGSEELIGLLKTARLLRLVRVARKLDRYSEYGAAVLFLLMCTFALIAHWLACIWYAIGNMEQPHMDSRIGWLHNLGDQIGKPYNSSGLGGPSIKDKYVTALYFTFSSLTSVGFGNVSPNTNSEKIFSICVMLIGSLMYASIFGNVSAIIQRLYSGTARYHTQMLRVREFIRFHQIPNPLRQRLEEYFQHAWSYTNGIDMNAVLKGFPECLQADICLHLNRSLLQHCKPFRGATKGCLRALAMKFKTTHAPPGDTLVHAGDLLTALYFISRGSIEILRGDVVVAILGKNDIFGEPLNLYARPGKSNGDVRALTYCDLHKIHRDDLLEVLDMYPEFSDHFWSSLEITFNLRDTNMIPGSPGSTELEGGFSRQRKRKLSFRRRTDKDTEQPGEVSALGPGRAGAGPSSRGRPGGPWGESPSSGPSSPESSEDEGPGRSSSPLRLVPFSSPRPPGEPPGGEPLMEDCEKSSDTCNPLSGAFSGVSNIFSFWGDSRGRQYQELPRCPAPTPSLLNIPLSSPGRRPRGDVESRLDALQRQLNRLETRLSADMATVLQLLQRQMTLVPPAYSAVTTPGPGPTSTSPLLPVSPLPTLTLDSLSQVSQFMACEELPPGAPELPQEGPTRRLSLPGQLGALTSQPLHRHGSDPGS
Procedure: This assay is used to evaluate the disclosed compounds' inhibition activities against the hERG channel.
CHO-K1 cells stably expressing hERG were grown in Ham's F-12 Medium with glutamine containing 10% heat-inactivated FBS, 1% penicillin/streptomycin, hygromycin (100 μg/ml) and G418 (100 μg/ml). Cells were grown in culture flasks at 37° C. in a 5% CO2-humidified incubator.
All compounds were dissolved in DMSO at 30 mM. Compound stock solutions were freshly diluted with external solution to concentrations of 30 nM, 100 nM, 300 nM, 1 μM, 3 μM, 10 μM, 30 μM and 100 μM. The highest content of DMSO (0.3%) was present in 100 μM.
The voltage protocol (see Table I) was designed to simulate voltage changes during a cardiac action potential with a 300 ms depolarization to +20 mV (analogous to the plateau phase of the cardiac action potential), a repolarization for 300 ms to −50 mV (inducing a tail current) and a final step to the holding potential of −80 mV. The pulse frequency was 0.3 Hz. Control (compound-free) and compound pulse trains for each compound concentration applied contained 70 pulses.
Whole-cell current recordings and compound application were enabled by means of an automated patch clamp platform Patchliner (Nanion). EPC 10 patch clamp amplifier (HEKA) along with Patchmaster software (HEKA Elektronik Dr. Schulze GmbH) was used for data acquisition. Data were sampled at 10 kHz without filtering. Increasing compound concentrations were applied consecutively to the same cell without washouts in between.
AUC and PEAK values were obtained with Patchmaster (HEKA Elektronik Dr. Schulze GmbH). To determine IC50 the last single pulse in the pulse train corresponding to a given compound concentration was used. Obtained AUC and PEAK values in the presence of compound were normalized to control values in the absence of compound.

Row | IC50 (Kv1.3 potassium channel) [µM] | SMILES | IC50 (hERG channel) [µM]
1 | < 1 | C[C@@H](CO)N1C[C@H](c2c(O)ccc(Cl)c2Cl)CC1=O (single isomer, unassigned; isomer 2) [Compound 39] | > 100
2 | < 0.1 | O=C1CC(c2c(O)ccc(Cl)c2Cl)CCN1C1CCNC1 (single isomer, unassigned) [Compound 1, 4-(2,3-dichloro-6-hydroxyphenyl)-1-[pyrrolidin-3-yl]piperidin-2-one] | > 30
3 | < 1 | Cn1ccc(N2C[C@H](c3c(O)ccc(Cl)c3Cl)CC2=O)cc1=O [Compound 68, (S)-4-(4-(2,3-dichloro-6-hydroxyphenyl)-2-oxopyrrolidin-1-yl)-1-methylpyridin-2(1H)-one] | > 100
4 | < 1 | O=C1C[C@@H](c2c(O)ccc(Cl)c2Cl)CN1[C@H]1CCNC1 (single isomer, unassigned) [Compound 12, 4-(2,3-dichloro-6-hydroxyphenyl)-[1,3-bipyrrolidin]-2-one] | > 30
5 | < 1 | O=C1C[C@@H](c2cc(Cl)c(Cl)cc2O)CN1C1CNC1 [Compound 22, (4S)-1-(azetidin-3-yl)-4-(4,5-dichloro-2-hydroxyphenyl)pyrrolidin-2-one] | > 100
6 | < 1 | Cn1cc(N2C[C@H](c3c(O)ccc(Cl)c3Cl)CC2=O)nn1 [Compound 65, (S)-4-(2,3-dichloro-6-hydroxyphenyl)-1-(1-methyl-1H-1,2,3-triazol-4-yl)pyrrolidin-2-one] | > 10
7 | < 0.1 | O=C1C[C@@H](c2c(O)ccc(Cl)c2Cl)CN1CCO [Compound 29, (4S)-4-(2,3-dichloro-6-hydroxyphenyl)-1-(2-hydroxyethyl)pyrrolidin-2-one] | > 30
8 | < 0.1 | Nc1ccc(N2C[C@H](c3c(O)ccc(Cl)c3Cl)CC2=O)cn1 [Compound 61, (S)-1-(6-aminopyridin-3-yl)-4-(2,3-dichloro-6-hydroxyphenyl)pyrrolidin-2-one] | > 10
9 | < 0.1 | O=C1C[C@@H](c2c(O)ccc(Cl)c2Cl)CN1C1CNC1 [Compound 19, (4S)-1-(azetidin-3-yl)-4-(2,3-dichloro-6-hydroxyphenyl)pyrrolidin-2-one] | > 100
10 | < 1 | O=C1N[C@H](c2c(O)ccc(Cl)c2Cl)CCN1[C@@H]1CCNC1 (single isomer, unassigned) [Compound 11, 4-(2,3-dichloro-6-hydroxyphenyl)-1-[pyrrolidin-3-yl]-tetrahydropyrimidin-2(1H)-one] | > 10
11 | < 1 | O=C1CO[C@H](c2c(O)ccc(Cl)c2Cl)CN1CCO (single isomer, unassigned; isomer 1) [Compound 95, 6-(2,3-dichloro-6-hydroxyphenyl)-4-(2-hydroxyethyl)morpholin-3-one isomer 1] | > 100
12 | < 0.1 | O=C1N[C@@H](c2c(O)ccc(Cl)c2Cl)CN1C[C@H](O)CO [Compound 102, (4S)-4-(2,3-dichloro-6-hydroxyphenyl)-1-[(2S)-2,3-dihydroxypropyl]imidazolidin-2-one] | > 100
13 | < 0.1 | Cn1cc(N2C[C@H](c3c(O)ccc(Cl)c3Cl)CC2=O)cn1 [Compound 56, (4S)-4-(2,3-dichloro-6-hydroxyphenyl)-1-(1-methylpyrazol-4-yl)pyrrolidin-2-one] | > 100
14 | < 0.1 | O=C1C[C@H](c2c(O)ccc(Cl)c2Cl)CN1[C@@H]1CCNC1 (single isomer, unassigned) [Compound 13, 4-(2,3-dichloro-6-hydroxyphenyl)-[1,3-bipyrrolidin]-2-one] | > 10
15 | < 0.1 | NC[C@@H](O)CN1C[C@H](c2c(O)ccc(Cl)c2Cl)CC1=O (single isomer, unassigned; isomer 1) [Compound 51] | > 100
16 | < 0.1 | O=C1C[C@@H](c2c(O)ccc(Cl)c2Cl)CN1C[C@H](O)CO [Compound 30, (4S)-4-(2,3-dichloro-6-hydroxyphenyl)-1-[(2S)-2,3-dihydroxypropyl]pyrrolidin-2-one] | > 100
17 | < 0.1 | CC1[C@H](c2c(O)ccc(Cl)c2Cl)CC(=O)N1CCO (stereo in doubt) [Compound 81, (4S,5S)-4-(2,3-dichloro-6-hydroxyphenyl)-1-(2-hydroxyethyl)-5-methylpyrrolidin-2-one] | > 30
18 | < 1 | CC(CO)N1C[C@H](c2c(O)ccc(Cl)c2Cl)CC1=O (single isomer, unassigned; isomer 1) [Compound 38] | > 30
19 | < 1 | CC1[C@@H](c2c(O)ccc(Cl)c2Cl)CC(=O)N1C1CNC1 (stereo in doubt) [Compound 76, (4R,5R)-1-(azetidin-3-yl)-4-(2,3-dichloro-6-hydroxyphenyl)-5-methylpyrrolidin-2-one] | > 100

Row | IC50 (Kv1.3 potassium channel) [µM] | SMILES | IC50 (hERG channel) [µM]
20 | < 0.1 | O=C1C[C@@H](c2c(O)ccc(Cl)c2Cl)CN1C[C@@H](O)CO [Compound 33, (4S)-4-(2,3-dichloro-6-hydroxyphenyl)-1-[(2R)-2,3-dihydroxypropyl]pyrrolidin-2-one] | > 100
21 | < 0.1 | O=C1C[C@@H](c2c(O)ccc(Cl)c2Cl)CN1C1CN(CCO)C1 [Compound 16, (4S)-4-(2,3-dichloro-6-hydroxyphenyl)-1-[1-(2-hydroxyethyl)azetidin-3-yl]pyrrolidin-2-one] | > 10
22 | < 1 | O=C1N[C@@H](c2c(O)ccc(Cl)c2Cl)CN1C[C@@H](O)CO [Compound 103, (4S)-4-(2,3-dichloro-6-hydroxyphenyl)-1-[(2R)-2,3-dihydroxypropyl]imidazolidin-2-one] | > 100
23 | < 0.1 | O=C1N[C@@H](c2c(O)ccc(Cl)c2Cl)CN1CCCO [Compound 104, (4S)-4-(2,3-dichloro-6-hydroxyphenyl)-1-(3-hydroxypropyl)imidazolidin-2-one] | > 100
24 | < 1 | N[C@H]1C(=O)N(C2CNC2)C[C@@H]1c1c(O)ccc(Cl)c1Cl [Compound 92, (3R,4S)-3-amino-1-(azetidin-3-yl)-4-(2,3-dichloro-6-hydroxyphenyl)pyrrolidin-2-one] | > 100
25 | < 0.1 | O=C1C[C@@H](c2c(O)ccc(Cl)c2Cl)CN1[C@H]1C[C@H](CO)C1 (single isomer, unassigned; isomer 1) [Compound 25] | > 30
26 | < 1 | O=C1C[C@@H](c2c(O)ccc(Cl)c2Cl)CN1C1CC(F)(F)C1 [Compound 74, (S)-4-(2,3-dichloro-6-hydroxyphenyl)-1-(3,3-difluorocyclobutyl)pyrrolidin-2-one] | > 30
27 | < 0.1 | O=C1C[C@@H](c2c(O)ccc(Cl)c2Cl)CN1[C@H]1C[C@@H](CO)C1 (single isomer, unassigned; isomer 2) [Compound 26] | > 30
28 | < 1 | C[C@@H]1C(=O)N(C2CNC2)C[C@@H]1c1c(O)ccc(Cl)c1Cl (single isomer, unassigned; isomer 4) [Compound 90, 1-(azetidin-3-yl)-4-(2,3-dichloro-6-hydroxyphenyl)-3-methylpyrrolidin-2-one isomer 4] | > 100
29 | < 0.1 | Cn1cc(N2CC(c3c(O)ccc(Cl)c3Cl)CC2=O)ccc1=O (stereo not shown) [Compound 57, 5-[4-(2,3-dichloro-6-hydroxyphenyl)-2-oxopyrrolidin-1-yl]-1-methylpyridin-2-one] | > 10
30 | < 0.1 | O=C1C[C@@H](c2c(O)ccc(Cl)c2Cl)CN1C[C@H]1C[C@@H](O)C1 (single isomer, unassigned; isomer 2) [Compound 32] | > 30
31 | < 0.1 | O=C1N[C@@H](c2c(O)ccc(Cl)c2Cl)CN1CCO [Compound 99, (4S)-4-(2,3-dichloro-6-hydroxyphenyl)-1-(2-hydroxyethyl)imidazolidin-2-one] | > 100
32 | < 1 | O=C1O[C@@H](c2c(O)ccc(Cl)c2Cl)CN1CCO (single isomer, unassigned; isomer 2) [Compound 94, 5-(2,3-dichloro-6-hydroxyphenyl)-3-(2-hydroxyethyl)oxazolidin-2-one isomer 2] | > 100
33 | < 0.1 | O=C1C[C@@H](c2c(O)ccc(Cl)c2Cl)CN1CC(CO)CO [Compound 42, (4S)-4-(2,3-dichloro-6-hydroxyphenyl)-1-[3-hydroxy-2-(hydroxymethyl)propyl]pyrrolidin-2-one] | > 30
34 | < 0.1 | Cc1ncc(N2C[C@H](c3c(O)ccc(Cl)c3Cl)CC2=O)s1 [Compound 67, (S)-4-(2,3-dichloro-6-hydroxyphenyl)-1-(2-methylthiazol-5-yl)pyrrolidin-2-one] | > 100
35 | < 0.1 | CC1[C@H](c2c(O)ccc(Cl)c2Cl)CC(=O)N1C[C@H](O)CO (stereo in doubt) [Compound 79, (4S,5S)-4-(2,3-dichloro-6-hydroxyphenyl)-1-[(2S)-2,3-dihydroxypropyl]-5-methylpyrrolidin-2-one] | > 30
36 | < 0.1 | O=C1C[C@@H](c2c(O)ccc(Cl)c2Cl)CN1C[C@H]1C[C@H](O)C1 (single isomer, unassigned; isomer 1) [Compound 31] | > 30
37 | < 0.1 | NCC(O)CN1C[C@H](c2c(O)ccc(Cl)c2Cl)CC1=O (single isomer, unassigned; isomer 2) [Compound 52] | > 100
38 | < 0.01 | NCCCN1C[C@H](c2c(O)ccc(Cl)c2Cl)CC1=O [Compound 43, (4S)-1-(3-aminopropyl)-4-(2,3-dichloro-6-hydroxyphenyl)pyrrolidin-2-one] | > 30
